In patent publication US20240076297A1, “ADENOSINE A2A AND A2B RECEPTOR DUAL ANTAGONISTS FOR IMMUNO-ONCOLOGY” (Merck Sharp & Dohme LLC, priority 2020, published 2024):

Experiments:
[1] = molecular target: human A2A adenosine receptor (Homo sapiens (Human), UniProt P29274); experiment: A2A binding affinity using radioligand binding, Method (A); settings: Method (A): filtration radioligand binding, [3H] SCH58261, membranes expressing human A2A
Description: (§1) Method (A) describes the procedure used to measure A2A binding affinity using radioligand binding. Method (B) describes the procedure used to measure A2A binding affinity using SPA technology. The method used to measure A2B binding affinity is also described below. The method used to determine the A2A IC50 value reported for each compound in the table is indicated next to the reported value. The A2B IC50 value measured using the A2B binding affinity assay is shown in the table next to the compound under the corresponding A2A value.
The A2A receptor affinity binding assay measured the amount of binding of a tritiated ligand with high affinity for the A2A adenosine receptor to membranes made from HEK293 or CHO cells recombinantly expressing the human A2A adenosine receptor, in the presence of varying concentrations of a compound of the invention. The data were generated using either filtration binding or a homogenous scintillation proximity assay (SPA).
Method (A): Measurement of A2A Binding Affinity Using Radioligand Binding
148 μL (5 μg/mL) membranes (Perkin Elmer, Cat. No. RBHA2aM400UA) and 2 μL compounds of the invention to be tested (test compound) were transferred to individual wells of a 96-well polypropylene assay plate and incubated for 15 to 30 min at room temperature. [^3H] SCH58261 ((7-(2-phenylethyl)-5-amino-2-(2-furyl)-pyrazolo-[4,3-e]-1,2,4-triazolo[1,5-c]pyrimidine)) was diluted in assay buffer (50 mM Tris pH 7.4, 10 mM MgCl2, 0.005% Tween20) to a concentration of 4 nM and 50 μL transferred to each well of the assay plate. To define total and non-specific binding, wells containing 1% DMSO and 1 μM ZM241385 (Tocris Bioscience, Cat. No. 1036) respectively, were also included. The assay plate was incubated at room temperature for 60 min with agitation. Using a FilterMate Harvester® (Perkin Elmer), the contents of the assay plate were filtered through a UniFilter-96® PEI coated plate (Perkin Elmer Cat. No. 6005274 or 6005277). Filtering was achieved by aspirating the contents of the assay plate for 5 sec, then washing and aspirating the contents three times with ice-cooled wash buffer (50 mM Tris-HCl pH 7.4, 150 mM NaCl) and allowing the vacuum manifold to dry the plate for 30 sec. The filter plate was incubated for at least 1 h at 55° C. and allowed to dry. The bottom of the filter plate was sealed with backing tape. 40 μL Ultima Gold™ (Perkin Elmer, Cat. No. 6013329) was added to each well of the filter plate and the top of the plate was sealed with TopSeal-A PLUS® clear plate seal (Perkin Elmer, Cat. No. 6050185). The plate was incubated for at least 20 min, and then the amount of radioactivity remaining in each well was determined using a TopCount® (Perkin Elmer) scintillation counter. After normalization to total and non-specific binding, the percent effect at each compound concentration was calculated. The plot of percent effect versus the log of compound concentration was analyzed electronically using a 4-parameter logistic fit based on the Levenberg-Marquardt algorithm to generate IC50 values.

[2] = molecular target: human A2B adenosine receptor (Homo sapiens (Human), UniProt P29275); experiment: A2B binding affinity, radioligand filtration binding assay; settings: HEK293 membranes expressing human A2B, tritiated proprietary antagonist
Description: as §1
Measurement of A2B Binding Affinity
The reported affinity of the compounds of the invention for the human A2B adenosine receptor was determined experimentally using a radioligand filtration binding assay. This assay measures the amount of binding of a tritiated proprietary A2B receptor antagonist, in the presence and absence of a compound of the invention, to membranes made from HEK293 cells recombinantly expressing the human A2B adenosine receptor (Perkin Elmer, Cat. No. ES-013-C).
148 μL (135 μg/mL) membranes and 2 μL test compounds were transferred to individual wells of a 96-well polypropylene assay plate and incubated for 15 to 30 min at room temperature with agitation. Tritiated radioligand was diluted to a concentration of 14 nM in assay buffer (phosphate buffered saline without Magnesium and Calcium, pH 7.4; GE Healthcare Life Sciences, Cat. No. SH30256.01) and then 50 μL of the solution were transferred to each well of the assay plate. To define total and non-specific binding, wells containing 1% DMSO and 20 μM N-ethylcarboxamidoadenosine (Tocris Bioscience, Cat. No. 1691) respectively, were also included. The wells of the assay plate were incubated at room temperature for 60 min with agitation, then filtered using a FilterMate Harvester® (Perkin Elmer) or similar equipment through a UniFilter-96@ PEI coated plate (Perkin Elmer Cat. No. 6005274 or 6005277). Filtering was achieved by aspirating the contents of the assay plate for 5 sec, then washing and aspirating the contents three times with ice-cooled wash buffer (assay buffer supplemented with 0.0025% Brij58) and allowing the vacuum manifold to dry the plate for 30 sec. The filter plate was incubated for at least 1 h at 55° C. and allowed to dry. The bottom of the filter plate was then sealed with backing tape. 40 μL Ultima Gold™ (Perkin Elmer, Cat. No. 6013329) was added to each well of the filter plate and the top of the plate was sealed with TopSeal-A PLUS® clear plate seal (Perkin Elmer, Cat. No. 6050185). The plates were then incubated for at least 20 min, and then the amount of radioactivity remaining in each well was determined using a TopCount® (Perkin Elmer) scintillation counter. After normalization to total and non-specific binding, the percent effect at each compound concentration was calculated. The plot of percent effect versus the log of compound concentration was analyzed electronically using a 4-parameter logistic fit based on the Levenberg-Marquardt algorithm to generate IC50 values.

Chain of human A2B adenosine receptor (P29275 whole entry): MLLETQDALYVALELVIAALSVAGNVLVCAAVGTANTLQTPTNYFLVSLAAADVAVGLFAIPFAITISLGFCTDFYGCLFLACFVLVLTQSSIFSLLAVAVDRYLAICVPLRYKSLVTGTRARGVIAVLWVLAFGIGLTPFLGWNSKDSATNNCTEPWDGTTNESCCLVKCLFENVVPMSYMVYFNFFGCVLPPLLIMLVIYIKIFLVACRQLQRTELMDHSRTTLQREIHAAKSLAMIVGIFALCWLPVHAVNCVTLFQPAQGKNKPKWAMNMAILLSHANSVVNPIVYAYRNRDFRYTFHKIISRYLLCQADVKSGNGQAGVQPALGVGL
Chain of human A2A adenosine receptor (P29274 whole entry): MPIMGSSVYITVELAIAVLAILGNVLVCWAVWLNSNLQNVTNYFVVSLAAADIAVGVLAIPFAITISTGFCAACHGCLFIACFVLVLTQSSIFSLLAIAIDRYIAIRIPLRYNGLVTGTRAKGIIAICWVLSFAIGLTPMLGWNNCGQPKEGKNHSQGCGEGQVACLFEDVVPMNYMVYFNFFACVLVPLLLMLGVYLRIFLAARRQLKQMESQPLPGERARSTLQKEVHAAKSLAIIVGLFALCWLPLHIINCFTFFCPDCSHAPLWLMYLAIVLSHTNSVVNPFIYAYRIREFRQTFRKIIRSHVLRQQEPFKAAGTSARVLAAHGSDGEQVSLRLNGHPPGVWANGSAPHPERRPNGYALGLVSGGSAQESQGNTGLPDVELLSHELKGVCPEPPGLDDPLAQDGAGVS

Row | SMILES | IC50 [1] [nM] | IC50 ([2]; value given with marker (A)) [nM] | IC50 ([2]; value given with marker (B)) [nM]
1 | COc1cc(F)cc2c1nc(N)n1nc(CCS(=O)(=O)C3CC3)nc21 [Example 13.10, 2-(2-(cyclopropylsulfonyl)ethyl)-9-fluoro-7-methoxy-[1,2,4]triazolo[1,5-c]quinazolin-5-amine] | 0.8 | 9.8 | –
2 | COc1cccc2c1nc(N)n1nc(CC3CC3c3ccc(C(C)(C)N)cc3)nc21 (single isomer, unassigned) [Example 8.5B, 2-(((IR,2S or 1S,2R)-2-(4-(2-aminopropan-2-yl)phenyl)cyclopropyl)methyl)-7-methoxy-[1,2,4]triazolo[1,5-c]quinazolin-5-amine] | 1.3 | 3.3 | –
3 | CC[C@@H](O)Cc1nc2c3cccc(OC)c3nc(N)n2n1 [Example 17.2, (R)-1-(5-amino-7-methoxy-[1,2,4]triazolo[1,5-c]quinazolin-2-yl)butan-2-ol] | 13.9 | – | 307
4 | COc1cc2nc(N)n3nc(CCS(C)(=O)=O)nc3c2cc1F [Example 6.4, 9-fluoro-8-methoxy-2-(2-(methylsulfonyl)ethyl)-[1,2,4]triazolo[1,5-c]quinazolin-5-amine] | 222 | 1900 | –
5 | COc1cccc2c1nc(N)n1nc(CCS(C)(=O)=O)nc21 [Example 6.3, 7-methoxy-2-(2-(methylsulfonyl)ethyl)-[1,2,4]-triazolo[1,5-c]quinazolin-5-amine] | 8.2 | 535 | –
6 | COc1cc2nc(N)n3nc(CCS(N)(=O)=O)nc3c2cc1F [Example 6.5, 2-(5-amino-9-fluoro-8-methoxy-[1,2,4]triazolo-[1,5-c]quinazolin-2-yl)ethane-1-sulfonamide] | 107 | 113 | –
7 | COc1ccc2c(c1)nc(N)n1nc(CCS(=O)(=O)c3ccc(F)cc3)nc21 [Example 13.7, 2-(2-((4-fluorophenyl)sulfonyl)ethyl)-8-methoxy-[1,2,4]triazolo[1,5-c]quinazolin-5-amine] | 170 | 607 | –
8 | COc1cc2nc(N)n3nc(CC(C)S(C)(=O)=O)nc3c2cc1F (single isomer, unassigned) [Example 13.2B, (R or S)-9-fluoro-8-methoxy-2-(2-(methylsulfonyl)propyl)-[1,2,4]triazolo[1,5-c]quinazolin-5-amine] | 8.1 | 1050 | –
9 | CCS(=O)(=O)CCc1nc2c3cc(F)c(OC)cc3nc(N)n2n1 [Example 13.12, 2-(2-(ethylsulfonyl)ethyl)-9-fluoro-8-methoxy-[1,2,4]triazolo[1,5-c]quinazolin-5-amine] | 165 | 1720 | –
10 | COc1cc(F)cc2c1nc(N)n1nc(COCc3ccc(C(O)(C(F)(F)F)C(F)(F)F)cc3)nc21 [Example 4.16, 2-(4-(((5-amino-9-fluoro-7-methoxy-[1,2,4]triazolo[1,5-c]quinazolin-2-yl)methoxy)methyl)phenyl)-1,1,1,3,3,3-hexafluoropropan-2-ol] | 0.3 | 0.9 | –
11 | COc1cccc2c1nc(N)n1nc([C@@H](C)CO)nc21 [Example 17.3, (R)-2-(5-amino-7-methoxy-[1,2,4]triazolo[1,5-c]quinazolin-2-yl)propan-1-ol] | 264 | – | 2990
12 | COc1cc2nc(N)n3nc(CCS(=O)(=O)CC(C)C)nc3c2cc1F [Example 13.16, 9-fluoro-2-(2-(isobutylsulfonyl)ethyl)-8-methoxy-[1,2,4]triazolo[1,5-c]quinazolin-5-amine] | 107 | 1080 | –
13 | COc1cccc2c1nc(N)n1nc(C[C@@H](C)O)nc21 [Example 18.4, (R)-1-(5-amino-7-methoxy-[1,2,4]triazolo[1,5-c]quinazolin-2-yl)propan-2-ol] | 15.1 | – | 209
14 | CCS(=O)(=O)CCc1nc2c3cc(F)cc(OC)c3nc(N)n2n1 [Example 13.15, 2-(2-(ethylsulfonyl)ethyl)-9-fluoro-7-methoxy-[1,2,4]triazolo[1,5-c]quinazolin-5-amine] | 9.8 | 220 | –
15 | COc1cc2nc(N)n3nc(CCS(=O)(=O)C4CC4)nc3c2cc1F [Example 13.14, 2-(2-(cyclopropylsulfonyl)ethyl)-9-fluoro-8-methoxy-[1,2,4]triazolo[1,5-c]quinazolin-5-amine] | 9.1 | 197 | –
16 | COc1cc(F)cc2c1nc(N)n1nc(CC3CC3c3ccc(C(C)(C)N)cc3)nc21 (single isomer, unassigned) [Example 8.4B, 2-(((1R,2S or 1S,2R)-2-(4-(2-aminopropan-2-yl)phenyl)-cyclopropyl)methyl)-9-fluoro-7-methoxy-[1,2,4]triazolo-[1,5-c]quinazolin-5-amine] | 3.1 | 139 | –
17 | COc1cccc2c1nc(N)n1nc(CCC3CCc4c(nnn4C(C)C)C3)nc21 (single isomer, unassigned) [Example 5.2B, (R or S)-2-(2-(1-isopropyl-4,5,6,7-tetrahydro-1H-benzo[d][1,2,3]triazol-5-yl)ethyl)-7-methoxy-[1,2,4]triazolo[1,5-c]quinazolin-5-amine] | 0.8 | 12 | –
18 | COc1cc(F)cc2c1nc(N)n1nc(COCc3ccc(C(C)(C)O)cc3)nc21 [Example 4.14, 2-(4-(((5-amino-9-fluoro-7-methoxy-[1,2,4]triazolo[1,5-c]quinazolin-2-yl)methoxy)methyl)phenyl)propan-2-ol] | 0.2 | 9.1 | –
19 | COc1cccc2c1nc(N)n1nc(C[C@H](C)O)nc21 [Example 18.3, (S)-1-(5-amino-7-methoxy-[1,2,4]triazolo[1,5-c]quinazolin-2-yl)propan-2-ol] | 6.7 | – | 214
20 | COc1cc(F)cc2c1nc(N)n1nc(CCCS(=O)(=O)C3CC3)nc21 [Example 13.18, 2-(3-(cyclopropylsulfonyl)propyl)-9-fluoro-7-methoxy-[1,2,4]triazolo[1,5-c]quinazolin-5-amine] | 1.1 | 112 | –
21 | CCS(=O)(=O)CCc1nc2c3ccc(OC)cc3nc(N)n2n1 [Example 13.9, 2-(2-(ethylsulfonyl)ethyl)-8-methoxy-[1,2,4]triazolo-[1,5-c]quinazolin-5-amine] | 246 | 1060 | –
22 | COc1cccc2c1nc(N)n1nc(COCc3ccc(C(O)(C(F)(F)F)C(F)(F)F)cc3)nc21 [Example 4.1, 2-(4-(((5-amino-7-methoxy-[1,2,4]triazolo[1,5-c]quinazolin-2-yl)methoxy)methyl)phenyl)-1,1,1,3,3,3-hexafluoropropan-2-ol] | 0.1 | 0.6 | –
